Data set [1] has as its system patients with confirmed, symptomatic DVT or PE treated for 6 months with a VKA or idraparinux. Kind of data set: Same study, principal safety outcome: major bleeding. Type of data set: in vivo. As to the method:
(§1) A double-blind, placebo-controlled study evaluated patients who had completed 6 months of initial treatment for deep venous thrombosis (hereafter “DVT”) or pulmonary embolism (hereafter “PE”) and who were then randomly assigned to receive an additional 6 months of prophylaxis with idraparinux. The efficacy of this method of thromboprophylaxis was evaluated in these patients.
(§2) Patients received a once-weekly subcutaneous dose of 2.5 mg of idraparinux or placebo with an identical appearance for 6 months (26 injections). In patients who had received idraparinux before randomization, the first dose of idraparinux or placebo was given 6 to 8 days after the last injection of the drug. In patients who had received a VKA before randomization, the first dose was given when the international normalized ratio (INR) was 3.0 or less. For patients with a creatinine clearance of less than 30 ml/min., the weekly idraparinux dose was 1.5 mg, with a first dose of 2.5 mg in patients who had received a VKA before randomization.
The principal safety outcome was major bleeding. […]
Analysis of the primary safety outcome, the incidence of major bleeding at 6 months, was performed with the use of the Mantel-Haenszel test, stratified according to the previous treatment. The effect of initial, prerandomization treatment on efficacy and safety was also analyzed. […]

Data set [2] shares this test system. Kind of data set: Double-blind, placebo-controlled study of 6 months extended thromboprophylaxis: symptomatic recurrent VTE. Type of data set: in vivo. As to the method:
as §1
Eligible patients were those aged above or equal to 18 years, with confirmed, symptomatic DVT or PE and who had been treated for 6 months with a VKA (acenocoumarol or warfarin), either in previous van Gogh studies (see The van Gogh Investigators, N. Engl. J. Med., 2007, 357, 1094-104) or outside these studies, or with idraparinux (in van Gogh studies).
The diagnostic criteria for DVT were a calf trifurcation or a more proximal vein that were noncompressible on ultrasonography or an intraluminal filling defect on venography. For PE, the diagnostic criteria were an intraluminal filling defect in subsegmental or more proximal pulmonary arteries on spiral computed tomography (CT) or conventional pulmonary angiography, a high-probability finding on a ventilation-perfusion lung scan, or a nondiagnostic finding on a lung scan with objectively documented DVT (H. R. Büller et al., Ann. Intern. Med., 2004, 140, 867-73; The Matisse Investigators, N. Engl. J. Med., 2003, 349, 1695-702).
Patients were ineligible if they met one or more of the following criteria: an indication to continue anticoagulant therapy for the index DVT or PE beyond 6 months, other indications for prophylaxis with a VKA, pregnancy or breast-feeding, a creatinine clearance of less than 10 ml per minute, severe hepatic disease, bacterial endocarditis, active bleeding or a high risk of bleeding, uncontrolled hypertension (systolic blood pressure above 180 mm Hg or diastolic blood pressure above 110 mm Hg), or a life expectancy of less than 3 months.
Patients were randomized, with stratification according to study center and to the anticoagulant treatment received in the 6 months before randomization (idraparinux within the van Gogh studies or VKA within or outside the van Gogh studies). Randomization was to be performed not more than 1 hour before the administration of the first dose of the study drug.
as §2
All patients were contacted after 1 week and at 3 and 6 months. […] At each contact, symptoms and signs of recurrent VTE were investigated.
All suspected outcome events were reviewed and classified by a central adjudication committee, whose members were unaware of study-group assignment.
The primary efficacy outcome was the incidence of symptomatic recurrence of VTE, defined as objectively documented recurrent PE, DVT or death attributed to PE. A diagnosis of recurrent VTE was accepted in the absence of an adequate objective test result if the investigator had treated the patient with therapeutic doses of heparin for more than 2 days or with a vena cava filter, thrombectomy or thrombolysis, or if recurrent VTE could not be ruled out. […]

[3] abbreviates: idraparinux group, month 6 after randomization, counted in most severe category.

As to `CO[C@H]1O[C@H](COS(=O)(=O)O)[C@@H](O[C@@H]2O[C@@H](C(=O)O)[C@@H](O[C@H]3O[C@H](COS(=O)(=O)O)[C@@H](O[C@@H]4O[C@H](C(=O)O)[C@@H](O[C@H]5O[C@H](COS(=O)(=O)O)[C@@H](OC)[C@H](OC)[C@H]5OC)[C@H](OC)[C@H]4OC)[C@H](OS(=O)(=O)O)[C@H]3OS(=O)(=O)O)[C@H](OC)[C@H]2OC)[C@H](OS(=O)(=O)O)[C@H]1OS(=O)(=O)O` [Idraparinux, idraparinux], the major hemorrhage in data set [1] (idraparinux group, 6 months of treatment, placebo 0%, P<0.001) was found to be 1.9%. Besides, in data set [1] (placebo group, patients who first received idraparinux, 6 months), the “major bleedings after discontinuation” value is listed as “without major bleedings”. Also, the “symptomatic, objectively confirmed VTE (frequency of recurrent thromboembolism)” value in data set [2] (idraparinux group, 6 of 594 patients, during the 6 months of randomly assigned treatment) was found to be 1.0%. Also, the “recurrent VTE” value in data set [2] (idraparinux group, 7 patients, further 6-month observation period after end of the additional 6 months of thromboprophylaxis, P=0.21 vs placebo) worked out at 1.2%. In addition, the “cumulative incidence of recurrent VTE (Kaplan-Meier)” value in data set [2] (idraparinux group, 1 year after randomization, P=0.002 vs placebo) is recorded as 1.7%. Also, the “Type of recurrent event: DVT only” value in data set [2] (setting [3]) was 3 number of patients. Besides, in data set [2] (setting [3]), the “Type of recurrent event: PE fatal” value is 2 number of patients. The “Type of recurrent event: PE non fatal” value in data set [2] (setting [3]) was 1 number of patients. Further, in data set [2] (idraparinux vs placebo, 6 months, 95% CI 33.5 to 88.8, P=0.002), the “reduction in the relative risk of recurrent VTE” value was 72.7%. Besides, the “Recurrent VTE, Odds Ratio (95% CI)” value in data set [2] (idraparinux vs placebo, month 6 after randomization, all patients, adjusted according to treatment history, P 0.002) is 0.27 (0.11-0.66); in data set [2] (idraparinux vs placebo, treatment before randomization: VKA outside study, month 6, P 0.004), 0.09 (0.01-0.69); in data set [2] (idraparinux vs placebo, treatment before randomization: VKA within study, month 6, P 0.02), 0.20 (0.04-0.92); in data set [2] (idraparinux vs placebo, treatment received before randomization: VKA, month 6, P <0.001), 0.14 (0.04-0.48); in data set [2] (idraparinux vs placebo, treatment received before randomization: idraparinux, month 6, P 0.68), 1.58 (0.26-9.55). The “cumulative incidence of recurrent thromboembolism by treatment received before randomization (FIG. 1)” value in data set [2] (placebo group, entire year after randomization, 268 patients who had received idraparinux in the 6 months before randomization) was “lowest”. Also, in data set [2] (placebo group, substance = treatment received for 6 months before randomization), the “frequency of recurrence (6-month recurrence rate) after discontinuation” value is listed as “less than 1%”.

The values are drawn from US20100062997A1, “USE OF IDRAPARINUX FOR EXTENDED PROPHYLAXIS OF THROMBOEMBOLISM” (SANOFI-AVENTIS, priority 2008, published 2010).
